{"source": "patent US6632789B1", "about": "“Methods for modulating T cell responses by manipulating intracellular signal transduction” (The United States of America as represented by the …, priority 1994, dated 2003)", "key": {"[1]": {"tested_on": "CD28-mediated calcium flux in Jurkat cells", "assay": "Anti-CD28 antibody-induced calcium flux in Jurkat cells", "format": "cell-based", "conditions": "Jurkat cells stimulated with anti-CD28 antibody; FIG. 4", "experimental": "In this example, the effect of pharmacological inhibitors on calcium flux in Jurkat cells induced by anti-CD28 antibodies was examined. The pharmacological inhibitors studied were wortmannin, which inhibits the activity of PI3K, and herbimycin A, which inhibits the activity of protein tyrosine kinases. Jurkat cells were stimulated with an anti-CD28 antibody, either in medium alone or in the presence of wortmannin or herbimycin A, and the mean calcium concentration (nM) in the cells was measured over several minutes following stimulation."}, "[2]": {"tested_on": "CD28-induced IL-2 production", "conditions": "cited from earlier work"}, "human T cells": {"tested_on": "human T cells", "assay": "IL-2 production by human T cells after 24 hours (ELISA of supernatants)", "format": "cell-based", "conditions": "for IC50: T-cell", "experimental": "In this example, the effect of an inhibitor of phosphatidylinositol 3-kinase on CD28-dependent production of interleukin-2 by T cells was examined. In a first series of experiments, the effect of T cell stimulation through CD28, in conjunction with stimulation through CD3, on IL-2 production was assessed in the absence of wortmannin. Highly purified human peripheral blood T cells were incubated for 24 hours with an immobilized anti-CD3 antibody (OKT3) alone or together with either an anti-CD28 antibody (9.3) or mitomycin C-treated CHO cells, either untransfected or transfected to express B7-1 or B7-2. Increasing numbers of CHO cells were tested (0.5×10^6 to 4×10^6). After culture for 24 hours, the culture supernatants were assayed for IL-2 production by ELISA by standard techniques.\nIn a next series of experiments, resting human T cells were stimulated with either: 1) immobilized OKT3+CHO-B7-1, 2) immobilized OKT3+CHO-B7-2, 3) immobilized OKT3+CHO-B7-1+B7-2, 4) PMA+CHO-B7-1 or 5) PMA+B7-2. Stimulation of T cells was performed in media alone or in media containing wortmannin at concentrations between 1 nM and 1 μM. Twenty-four hours following culture, the supernatants were assayed for IL-2 production by ELISA. […] Wortmannin-mediated inhibition of IL-2 production was dose dependent. The ID50 for inhibition of B7-2 -mediated stimulation was approximately 10 nM. The ID50 for inhibition of B7-1-mediated stimulation was between 10 and 100 nM."}}, "note": "Like-named read-outs stand apart in the source and are kept apart here.", "data": [{"compound": "CO[C@H]1[C@@H](OC)C[C@H](C)[C@@H](OC)C2=CC(=O)C=C(NC(=O)/C(C)=C/C=C\\[C@H](OC)[C@@H](OC(N)=O)/C(C)=C/[C@@H]1C)C2=O", "note": "[herbimycin A]", "values": [{"measurement": "inhibition of CD28 antibody-induced calcium flux", "setting": "[1]", "result": "capable of inhibiting"}, {"measurement": "inhibition of CD28-induced IL-2 production", "setting": "[2]", "result": "can inhibit"}]}, {"compound": "COC[C@H]1OC(=O)c2coc3c2[C@@]1(C)C1=C(C3=O)[C@@H]2CCC(=O)[C@@]2(C)C[C@H]1OC(C)=O", "note": "[wortmannin]", "values": [{"measurement": "IC50", "setting": "human T cells; resting human T cells, immobilized OKT3+CHO-B7-1, 24 hours, read-out: ID50 for inhibition of B7-1-mediated stimulation of IL-2 production", "result": "10 to 100", "unit": "nM"}, {"measurement": "IC50", "setting": "human T cells; resting human T cells, immobilized OKT3+CHO-B7-2, 24 hours, read-out: ID50 for inhibition of B7-2-mediated stimulation of IL-2 production", "result": "~10", "unit": "nM"}, {"measurement": "toxicity to the cells", "setting": "human T cells; resting human T cells, at the ID50 doses (10 to 100 nM)", "result": "not generally toxic"}, {"measurement": "inhibition of IL-2 production stimulated by PMA together with membrane-bound B7-1 or B7-2", "setting": "human T cells; resting human T cells, wortmannin at concentrations as high as 1 μM", "result": "not inhibited"}]}, {"compound": "OKT3: immobilized anti-CD3 antibody (OKT3)", "values": [{"measurement": "IL-2 production", "setting": "human T cells; purified human peripheral blood T cells, 24 hours, immobilized OKT3 alone, FIG. 6", "result": "did not produce IL-2"}]}]}
